Test results taken from patent US20230364121A1 (priority 2020, published 2023).
Values joined by “and” are separate entries in the source; they are usually repeats but may differ in a detail not shown here. Equal entries are not always repeated. Where two headings read alike, the source gives them in different places.

Columns and labels:
[1] = Bronchoalveolar lavage and plasma PK / safety study in healthy participants; assay type: in vivo, human
Description: Two cohorts of 8 healthy participants have been enrolled to receive AT-527 at 275 or 550 mg BID orally for 2.5 days. At 4 and 12 h following the last dose, each participant (4/timepoint/cohort) underwent a single bronchoalveolar lavage (BAL) via a standard bronchoscope. Intensive plasma PK sampling was also performed after the last dose. BAL and plasma samples were assayed for AT-273. AT-273 levels in lung epithelial lining fluid (ELF) were calculated by correcting for urea levels in the BAL and the corresponding plasma samples. Safety assessments included adverse events (AEs), vital signs, electrocardiograms (ECGs), and standard laboratory tests.

[2] = tested on: SARS-CoV and SARS-CoV-2 RTCs; assay type: biochemical; details: equimolar concentrations of GTP
SARS CoV1 nsp14 = SARS CoV1 nsp14 (Severe acute respiratory syndrome coronavirus, UniProt P0C6X7); assay type: biochemical, SARS-CoV-1
nsp12:7:8 RTC = nsp12:7:8 RTC (Severe acute respiratory syndrome coronavirus, UniProt P0C6X7); assay type: biochemical, SARS-CoV
nsp12-NiRAN = nsp12-NiRAN (Severe acute respiratory syndrome coronavirus, UniProt P0C6X7); assay type: biochemical, SARS-CoV
[3] = molecular target: T1, SARS-Cov-1 nsp12:7L8:8 polymerase complex (Severe acute respiratory syndrome coronavirus, UniProt P0C6X7); experiment: biochemical; assay type: biochemical
nsp12 = nsp12 (Severe acute respiratory syndrome coronavirus, UniProt P0C6X7); assay type: binding, SARS-CoV
[4] = molecular target: Sars-CoV-2 nsp8 labeling by nsp12 (Severe acute respiratory syndrome coronavirus 2, UniProt P0DTD1); experiment: nsp8-UMPylation competition assay with RTCs; assay type: biochemical; details: FIG. 13E
[5] = molecular target: T1, SARS-Cov-1 nsp12:7L8:8 polymerase complex; assay type: biochemical
nsp12 NiRAN active-site = nsp12 NiRAN active-site (Severe acute respiratory syndrome coronavirus, UniProt P0C6X7); experiment: biochemical; assay type: biochemical, SARS-CoV
[6] = tested on: SARS-CoV-2 strain BavPatl; experiment: Antiviral assay in HUH7.5 cells, viral RNA by RT-qPCR; assay type: cell-based; details: 2 days
SARS-CoV-2 (WA1) = experiment: microbe, parasite or virus in culture; assay type: cell-based
[7] = tested on: HCoV-229E, HCoV-OC43, SARS-CoV-1 and SARS-CoV-2; experiment: organism not typed; assay type: cell-based, human coronaviruses; details: Huh-7, read-out: Individual determinations of EC90 values
SARS-CoV (Urbani) = assay type: cell-based; details: SARS-CoV-1, Huh-7, Table 5
[8] = tested on: human coronavirus alpha-229E; experiment: microbe, parasite or virus in culture; assay type: cell-based, HCoV-229E
MERS-CoV = assay type: cell-based
[9] = tested on: human coronavirus beta-OC43; experiment: microbe, parasite or virus in culture; assay type: cell-based, HCoV-OC43; details: unidentified human coronavirus, OC43, Huh-7, read-out: VYR EC90
HCoV-229E [10] = details: MRC-5 cells; cited from earlier work
Huh7 cells = details: human
[11] = Cytotoxicity in mock infected BHK cells (MTT); assay type: cell-based, hamster; details: hamster, uninfected BHK-21 cells; BHK-21; Table 5
Description: To determine the cytotoxicity, cells were seeded at an initial density of 1×10^6 cells/mL in 96 well plates containing Minimum Essential Medium with Earles's salts (MEM-E), L-glutamine, 1 mM sodium pyruvate and 25 mg/L kanamycin, supplemented with 10% fetal bovine serum. Cell cultures were then incubated at 37° C. in a humidified 5% CO2 atmosphere in the absence or presence of serial dilutions of test compounds. Cell viability was determined by the MTT method.
Uninfected cells in the presence of serially diluted compound were used to assess the cytotoxicity of compounds.

HCoV-229E [12] = experiment: Virus-induced CPE assay, HCoV-229E in BHK-21 cells (MTT); assay type: cell-based
Description: In an initial screening, BHK-21 cells acutely infected with a seasonal human alpha coronavirus, HCoV-229E, were exposed to serial dilutions of Compound 1A.
BHK-21 cells: Test compounds were dissolved in DMSO at 100 mM and then diluted in Minimum Essential Medium with Earle's salts (MEM-E) containing 1 mM sodium pyruvate and 25 μg/mL kanamycin, supplemented with 10% FBS (growth medium) to final concentrations of 100, 20, 4 and 0.8 μM (two […] replica plates each). After BHK-21 cells were grown to confluency in 96-well plates, growth medium was replaced with fresh maintenance medium (growth medium with 1% inactivated FBS in place of 10% FBS) containing serially diluted test compound and HCoV-229E at a multiplicity of infection (MOI) of 0.01. Uninfected cells in the presence of serially diluted compound were used to assess the cytotoxicity of compounds. After a 3-day incubation at 37° C. in a humidified 5% CO2 atmosphere, cell viability was determined by the MTT method (Pauwels, R et al. J. Virol. Methods 20(4):309-321 (1988)).

RD cells = details: human
HCoV-OC43 = experiment: microbe, parasite or virus in culture; assay type: cell-based; details: Betacoronavirus 1, OC43, RD
in vitro = details: human
Salmonella/microsome = details: acknowledged by Merck; cited from earlier work
dNHBE (HAE) cells = details: human
[13] = AT-527 550 mg BID orally 2.5 days, 4 and 12 h after last dose
[14] = Severe acute respiratory syndrome coronavirus 2, HAE, read-out: EC90, single replicates
[15] = Severe acute respiratory syndrome coronavirus 2, HAE, read-out: Virus Yield Reduction Assay EC90
[16] = read-out: EC90, single replicates
[17] = read-out: Virus Yield Reduction Assay EC90
[18] = read-out: Neutral Red Assay EC50
[19] = unidentified human coronavirus, Huh-7, 72 h, read-out: Virus Yield Reduction Assay EC90
[20] = unidentified human coronavirus, Huh-7, 120 h, read-out: Neutral Red Assay EC50
[21] = Severe acute respiratory syndrome coronavirus 2, 48 h
[22] = Severe acute respiratory syndrome coronavirus 2, Huh7.5, 48 h

SMILES: C[C@@]1(F)[C@H](O)[C@@H](CO)O[C@H]1n1cnc2c(=O)[nH]c(N)nc21 [AT-273]
- Mean AT-273 level in lung ELF [1, 13]: ≥ 0.5 µM
- Mean AT-273 level in plasma [1, 13]: ≥ 0.5 µM
- correlation of ELF and plasma levels (r) ([1]; P<0.001): 0.86

SMILES: C[C@@]1(F)[C@H](O)[C@@H](COP(=O)(O)OP(=O)(O)OP(=O)(O)O)O[C@H]1n1cnc2c(=O)[nH]c(N)nc21 [AT-9010, 2′-fluoro-2′-C-methylguanosine-5′-triphosphate]
- discrimination compared with natural GTP [2]: ~5 fold
- inhibition of N7-MTase activity (SARS CoV1 nsp14): no inhibition
- inhibition of RNA synthesis from poly(C) template (nsp12:7:8 RTC): significantly reduces activity
- inhibition of synthesis of poly(U)n RNA from poly(A)27 template (nsp12:7:8 RTC): inhibits synthesis of poly(U)n RNA equally as well as STP
- fold preference AT9010: GTP (nsp12-NiRAN): ~1.7 fold
- fold preference AT9010: UTP (nsp12-NiRAN): ~3.2 fold
- EC50 [3]: 1500 to 2000 nM
- inhibition of de novo synthesis on poly(A) template [3]: almost complete inhibition
- thermal stability of nsp12 (nsp12): provides more thermodynamic stability than any other native nucleotide
- fold more efficient at blocking nsp8 labeling than STP [4]: 4-5 fold
- Discrimination of ATEA-GTP, average [5]: 27.0+/−7.9 fold and 21.0+/−1.5 fold and 27.0 fold and 21.0 fold
- discrimination against GTP [5]: 22 fold
- inhibition of primer elongation [5]: no inhibition of primer elongation
- IC50 (nsp12 NiRAN active-site; IC50 of nsp8 labeling against GTP (FIG. 13C)): 2700 ± 300 nM
- IC50 (nsp12 NiRAN active-site; IC50 of nsp8 labeling against UTP (FIG. 13C)): 1900 nM
- IC50 (nsp12 NiRAN active-site; IC50 of nsp8 labeling, competition with UTP (FIG. 13A)): 870 nM

SMILES: CNc1nc(N)nc2c1ncn2[C@@H]1O[C@H](COP(=O)(N[C@@H](C)C(=O)OC(C)C)Oc2ccccc2)[C@@H](O)[C@@]1(C)F (stereo partly drawn) [Compound 1A]
- CC50 (HUH 7.5 cells): > 20000 nM
- EC90 [6]: 3390 nM
- EC50 ([6]; listed as AT-511): 1100 nM and 1130 nM

SMILES: CNc1nc(N)nc2c1ncn2[C@@H]1O[C@H](CO[P@@](=O)(N[C@@H](C)C(=O)OC(C)C)Oc2ccccc2)[C@@H](O)[C@@]1(C)F [Compound 1A]
- replicate EC90 determinations (SARS-CoV-2 (WA1)): ^2Value represents the mean of two replicate EC90 determinations, 0.33 and 0.41 μg/mL
- EC90 (SARS-CoV-2 (WA1); Severe acute respiratory syndrome coronavirus 2, HAE, read-out: Average EC90 from two separate HAE assays): 500 nM
- EC90 (SARS-CoV-2 (WA1); [14]): 570 nM
- EC90 (SARS-CoV-2 (WA1); [15]): 0.37 µg/mL and 640 nM
- EC90 (SARS-CoV-2 (WA1); Severe acute respiratory syndrome coronavirus 2, HAE, read-out: replicate EC90 determinations): 0.33 µg/mL
- Selectivity Index (SARS-CoV-2 (WA1); dNHBE, virus yield reduction assay): >135
- EC90 (SARS-CoV-2 (WA1); [16]): 700 nM and 520 nM and 420 nM
- EC90 (SARS-CoV-2 (WA1); [17]): 470 nM
- EC90 [7]: 340 to 1200 nM
- Selectivity Index (CC50/EC90) (SARS-CoV (Urbani)): >250
- EC90 (SARS-CoV (Urbani); [17]): 340 nM
- Selectivity Index (CC50/EC90) ([8]; Huh-7, Table 5): >75
- EC50 [8, 18]: 1600 nM
- EC90 [8, 19]: 1000 nM
- EC50 [8, 20]: 1700 nM
- EC50 ([8]; unidentified human coronavirus, Huh-7, read-out: Neutral Red EC50): 1000 nM
- EC90 ([8]; unidentified human coronavirus, Huh-7, read-out: VYR EC90): 710 nM
- EC50 ([8]; unidentified human coronavirus, Huh-7, read-out: Visual EC50, Huh7 cells, visual CPE): 1000 nM
- difference of activity between MERS-CoV and other CoVs (MERS-CoV): 30 fold
- EC90 [9]: 290 nM
- EC50 (HCoV-229E [10]): > 100000 nM
- Neutral Red Assay CC50 (Huh7 cells): >50^ μg/mL
- CC50 at 3 days [11]: > 100000 nM
- EC50 (HCoV-229E [12]; BHK-21, the 2 experiments averaged in Table 5, read-out: EC50, single experiments): 2000 nM
- EC50 (HCoV-229E [12]; Human coronavirus 229E, BHK-21, 72 h, BHK-21, dye staining, 3-day incubation, read-out: EC50): 1800 nM
- EC50 (HCoV-229E [12]; Human coronavirus 229E, BHK-21, BHK-21, the 2 experiments averaged in Table 5, read-out: EC50, single experiments): 1600 nM
- CC50 (RD cells): > 86000 nM
- EC50 (HCoV-OC43; [18]): 2800 nM
- EC90 (HCoV-OC43; [17]): 2200 nM

SMILES: CC(C)C[C@H](NC(=O)OCc1ccccc1)C(=O)N[C@@H](C[C@@H]1CCNC1=O)C(O)S(=O)(=O)O (stereo partly drawn) [GC376]
- CC50 (in vitro): > 20000 nM
- EC90 [6, 21]: < 150 nM
- EC50 [6, 22]: < 150 nM

SMILES: CC(C)C(=O)OC[C@H]1O[C@@H](n2ccc(NO)nc2=O)[C@H](O)[C@@H]1O [Molnupiravir, molnupiravir]
- CC50 (in vitro): > 20000 nM
- EC50 [6]: 1710 nM
- EC90 [6, 21]: 4210 nM
- EC50 [6, 22]: 1700 nM
- AMES test (Salmonella/microsome): positive

SMILES: O=c1nc(NO)ccn1[C@@H]1O[C@H](CO)[C@@H](O)[C@H]1O [N4-hydroxycytidine, reference compound]
- CC50 (dNHBE (HAE) cells): > 19000 nM
- Selectivity Index (CC50/EC90) (SARS-CoV-2 (WA1)): >5.1
- potency relative to Compound 1A in the same experiment (times less) (SARS-CoV-2 (WA1)): 8 times
- EC90 (SARS-CoV-2 (WA1); [14]): 4700 nM
- EC90 (SARS-CoV-2 (WA1); [15]): 3900 nM
- EC90 (SARS-CoV-2 (WA1); [16]): 3100 nM

SMILES: CCN(CC)CCCC(C)Nc1ccnc2cc(Cl)ccc12 (stereo not drawn) [chloroquine, reference compound]
- EC90 [8, 19]: < 50 nM
- EC50 [8, 20]: 8100 nM
- CC50 (Huh7 cells): 21000 nM

SMILES: CCN(CCO)CCCC(C)Nc1ccnc2cc(Cl)ccc12 (stereo not drawn) [hydroxychloroquine, reference compound]
- EC90 [8, 17]: < 48 nM
- EC90 [8, 19]: < 50 nM
- EC50 [8, 20]: 7400 nM
- CC50 (Huh7 cells): 26000 nM
